{"source": "patent US7144880B2", "about": "“Compositions relating to novel compounds and targets thereof” (Regents of the University of Michigan, priority 2003, dated 2006)", "key": {"[1]": {"molecular_target": "T1, mitochondrial F1F0-ATPase (Bos taurus, UniProt P13621)", "T1 construct": "from tissue", "assay": "ATPase activity in sub-mitochondrial particles (SMPs)", "type": "biochemical, bovine", "conditions": "bovine SMPs; read-out: ED50, inhibition of mitochondrial ATPase activity", "source_text": "Oligomycin, a macrolide natural product that binds to the mitochondrial F1F0-ATPase, induces a state 3 to 4 transition and generates O2^− like Bz-423. Based on these similarities, it is possible that the F1F0-ATPase is also the molecular target for Bz-423. To test this hypothesis, the effect of Bz-423 on ATPase activity in sub-mitochondrial particles (SMPs) was examined.\n>40 derivatives of Bz-423 were developed to determine the elements on this novel agent required for biological activity. […] The potency of these analogues in cell based assays correlated with the ED50 values in ATPase inhibition experiments using SMPs."}, "[2]": {"tested_on": "isolated rat liver mitochondria", "assay": "ROS production in isolated mitochondria (DCFH oxidation to DCF)", "type": "biochemical", "method": "Male Long Evans rats are starved overnight and sacrificed by decapitation. Liver samples are homogenized in ice cold buffer A (250 mM sucrose, 10 mM Tris, 0.1 mM EGTA, pH 7.4), and nuclei and cellular debris are pelleted (10 min, 830 g, 4° C.). Mitochondria are collected by centrifugation (10 min, 15,000 g, 4° C.), and the supernatant is collected as the S15 fraction. The mitochondrial pellet is washed three times with buffer B (250 mM sucrose, 10 mM Tris, pH 7.4), and re-suspended in buffer B at 20–30 mg/mL. Mitochondria are diluted (0.5 mg/mL) in buffer C (200 mM sucrose, 10 mM Tris, pH 7.4, 1 mM KH2PO4, 10 μM EGTA, 2.5 μM rotenone, 5 mM succinate) containing 2′,7′-dichlorodihydrofluorescin diacetate (DCFH-DA, 1 μM). For state 3 measurements, ADP (2 mM) is included in the buffer, and prior to the addition of Bz-423, mitochondria are allowed to charge for 2 min. To induce state 4, oligomycin (10 μM) is added to buffer C. […] To detect effects on O2^− and delta ψm, mitochondria are incubated for 15 min at 37° C. in buffer C with vehicle, Bz-423, or CCCP containing DHE (5 μM) or DIOC6(3) (20 nM), and aliquots are removed for analysis by fluorescence microscopy.\nO2^− production by Bz-423 may result from binding to a protein within mitochondria or a target in another compartment that signals mitochondria to generate ROS. To distinguish between these alternatives, isolated rat liver mitochondria were assayed for ROS production by monitoring the oxidation of 2′,7′-dichlorodihydrofluorescin diacetate to of 2′,7′-dichlorofluorescin in the presence and absence of Bz-423. In this assay, the rate of DCF production increased after a lag period during which endogenous reducing equivalents were consumed and the acetate moieties on the probe were hydrolyzed to yield 2′,7′-dichlorodihydrofluorescin, the redox-active species."}, "[3]": {"tested_on": "B cells", "assay": "Collapse of mitochondrial ΔΨm detected with DiOC6(3)", "type": "cell-based", "conditions": "by 5 hours", "method": "To detect O2^−, cells are incubated with DHE (10 μM) for 30 min at 37° C. and are analyzed by flow cytometry to measure ethidium fluorescence. Flow analysis of mitochondrial transmembrane potential (ψm) is conducted by labeling cells with DiOC6(3) (20 nM) for 15 min at 37 degrees C. A positive control for disruption of ψm is established using carbonyl cyanide m-chlorophenylhydrazone (CCCP, 50 μM). Caspase activation assays are performed with FAM-VAD-fluoromethylketone. Processing of the substrate is evaluated by flow cytometry.\nTo characterize the death mechanism engaged by Bz-423, intracellular ROS, ΔΨm, cytochrome c release, caspase activation, and DNA fragmentation were measured over time (the results presented are for B cells but do characterize the response in many different cell types). The first event detected after exposure to Bz-423 is an increase in the fraction of cells that stain with dihyroethedium (DHE), a redox-sensitive agent that reacts specifically with O2^−.\nCollapse of ΔΨm was detected using DiOC6(3), a mitochondria-selective potentiometric probe."}, "[4]": {"tested_on": "neuroblastoma cell line IMR-32", "assay": "Antiproliferation, 72 h, media with 10% FBS", "type": "cell-based", "conditions": "IMR-32, 72 h, read-out: ED50 (μM) for antiproliferation", "method": "(§1) Like most 1,4-benzodiazepines, Bz-423 binds strongly to bovine serum albumin (BSA), which reduces the effective concentration of drug free in solution. For example, in tissue culture media containing 10% (v/v) fetal bovine serum (FBS), ca. 99% of the drug is bound to BSA. Therefore, cell culture cytotoxicity assays are conducted in media with 2% FBS to reduce binding to BSA and increase the free [Bz-423]. Under these conditions, the dose response-curve is quite sharp such that there is a limited concentration range at which Bz-423 is only partly effective. Since some benzodiazepines are known to have anti-proliferative properties, the effect of Bz-423 at concentrations <ED50 were carefully analyzed and observed that in addition to inducing apoptosis, Bz-423 prevented cell growth after 3 d in culture. In these low serum conditions, the cytotoxic and anti-proliferative effects overlapped making it difficult to study each effect independently. […] While higher amounts of drug may also block proliferation, it caused apoptosis well before the effects on proliferation could be observed.\n(§2) To confirm the decrease in cell number relative to control cells after 3 d of treatment is due to decreased proliferation and not cell death balanced by proliferation, in addition to cell counting, cell divisions were studied. PKH-67 is a fluorescent probe that binds irreversibly to cell membranes and upon cell division is partitioned equally between the daughter cells, making it possible to quantify cell division by flow cytometry. Ramos cells stained with PKH67 and treated with Bz-423 had fewer cell divisions at sub-cytotoxic concentrations which confirmed that the decrease in cell number was due to anti-proliferative affects and not cell death. To determine if Bz-423 induced anti-proliferation was specific to Ramos cells, cell counting and cell cycle experiments were done in other B cell lines and cell lines derived from solid tumors."}, "[5]": {"tested_on": "neuroblastoma cell line Lan-1", "assay": "Antiproliferation, 72 h, media with 10% FBS", "type": "cell-based", "conditions": "Lan-1, 72 h, read-out: ED50 (μM) for antiproliferation", "method": "as §1, §2"}, "[6]": {"tested_on": "ovarian cells with null p53 (SKOV3)", "assay": "Antiproliferation, 72 h, media with 10% FBS", "type": "cell-based", "conditions": "SKOV3, 72 h, read-out: ED50 (μM) for antiproliferation", "method": "as §1, §2"}, "[7]": {"tested_on": "malignant B cell line Raji", "assay": "Antiproliferation, 72 h, media with 10% FBS", "type": "cell-based", "conditions": "read-out: ED50 (μM) for antiproliferation", "method": "as §1, §2"}, "[8]": {"tested_on": "neuroblastoma cell line SHEP-1", "assay": "Antiproliferation, 72 h, media with 10% FBS", "type": "cell-based", "conditions": "SHEP-1, 72 h, read-out: ED50 (μM) for antiproliferation", "method": "as §1, §2"}, "[9]": {"tested_on": "malignant B cell line CA46", "assay": "Antiproliferation, 72 h, media with 10% FBS", "type": "cell-based", "conditions": "CA46, 72 h, read-out: ED50 (μM) for antiproliferation", "method": "as §1, §2"}}}
{"molecule": "CN1C(=O)C(Cc2ccc3ccccc3c2)N=C(c2ccc(O)cc2)c2cc(Cl)ccc21", "note": "(stereo not shown) [Bz-423]", "values": [{"measurement": "EC50", "setting": "[1]", "value": "~5", "unit": "µM"}, {"measurement": "Increase in rate of ROS production versus control", "setting": "[2]; state 3 respiration, aerobic, after induction phase, slopes compared to control", "value": "nearly two-fold"}, {"measurement": "ROS production in state 4 mitochondria", "setting": "[2]; state 4 respiration", "value": "does not stimulate ROS"}, {"measurement": "Cells with collapse of ΔΨm", "setting": "[3]", "value": "> 90", "unit": "%"}, {"measurement": "EC50", "setting": "[4]", "value": 18, "unit": "µM"}, {"measurement": "EC50", "setting": "[5]", "value": 13.7, "unit": "µM"}, {"measurement": "EC50", "setting": "[6]", "value": 18.2, "unit": "µM"}, {"measurement": "EC50", "setting": "[7]", "value": 12.9, "unit": "µM"}, {"measurement": "EC50", "setting": "[8]", "value": 15.9, "unit": "µM"}, {"measurement": "EC50", "setting": "[9]", "value": 13.4, "unit": "µM"}]}
